Test results reported in patent US10130655B2, “Composition and method for pre-surgical skin disinfection” (GOJO INDUSTRIES, INC., priority 2006, dated 2018).

Assay: Irritation potential, independent laboratory testing (Total Cumulative Irritation, Berger & Bowman)
Details: in vivo
Description: Independent laboratory testing compared irritation potential of commercial products, controls, and a disinfecting composition according to the present invention.

CCCCCCCCCCCCOS(=O)(=O)[O-].[Na+] [Sodium Lauryl Sulfate]
Berger & Bowman Classification: Possibly Mild in use | CIT Score (Total Cumulative Irritation): 1321.0
